Experimental findings from ChEMBL document CHEMBL1909046, “DrugMatrix in vitro pharmacology data” are described below.

Kappa-type opioid receptor, sequence (P41145 whole entry): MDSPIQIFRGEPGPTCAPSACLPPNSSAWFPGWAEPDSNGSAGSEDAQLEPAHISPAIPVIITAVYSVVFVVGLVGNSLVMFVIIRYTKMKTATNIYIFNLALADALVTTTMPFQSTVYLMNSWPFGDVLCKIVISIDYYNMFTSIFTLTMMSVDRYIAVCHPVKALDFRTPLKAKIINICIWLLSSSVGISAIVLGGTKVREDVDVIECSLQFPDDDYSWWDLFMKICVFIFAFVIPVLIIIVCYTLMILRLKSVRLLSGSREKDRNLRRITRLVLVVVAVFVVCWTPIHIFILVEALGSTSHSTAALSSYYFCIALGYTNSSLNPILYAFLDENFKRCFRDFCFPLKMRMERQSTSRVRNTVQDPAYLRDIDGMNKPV
Sodium-dependent noradrenaline transporter, sequence (P23975 whole entry): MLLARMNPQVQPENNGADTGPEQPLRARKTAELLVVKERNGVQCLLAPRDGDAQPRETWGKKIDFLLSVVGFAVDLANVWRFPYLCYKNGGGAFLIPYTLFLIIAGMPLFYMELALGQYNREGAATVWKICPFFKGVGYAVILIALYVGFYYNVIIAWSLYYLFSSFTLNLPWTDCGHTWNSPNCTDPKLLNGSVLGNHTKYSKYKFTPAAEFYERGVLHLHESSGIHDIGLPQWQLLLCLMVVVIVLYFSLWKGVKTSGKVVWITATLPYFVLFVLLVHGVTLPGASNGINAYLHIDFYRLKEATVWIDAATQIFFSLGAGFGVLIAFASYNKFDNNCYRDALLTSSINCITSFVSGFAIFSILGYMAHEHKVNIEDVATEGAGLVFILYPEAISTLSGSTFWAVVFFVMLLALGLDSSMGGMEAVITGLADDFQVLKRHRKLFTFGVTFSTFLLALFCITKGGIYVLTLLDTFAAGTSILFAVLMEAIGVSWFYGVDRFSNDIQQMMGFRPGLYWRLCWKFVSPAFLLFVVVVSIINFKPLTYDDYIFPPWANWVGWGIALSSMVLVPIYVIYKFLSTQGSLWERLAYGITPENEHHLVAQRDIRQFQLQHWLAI
Cannabinoid receptor 1, sequence (P21554 whole entry): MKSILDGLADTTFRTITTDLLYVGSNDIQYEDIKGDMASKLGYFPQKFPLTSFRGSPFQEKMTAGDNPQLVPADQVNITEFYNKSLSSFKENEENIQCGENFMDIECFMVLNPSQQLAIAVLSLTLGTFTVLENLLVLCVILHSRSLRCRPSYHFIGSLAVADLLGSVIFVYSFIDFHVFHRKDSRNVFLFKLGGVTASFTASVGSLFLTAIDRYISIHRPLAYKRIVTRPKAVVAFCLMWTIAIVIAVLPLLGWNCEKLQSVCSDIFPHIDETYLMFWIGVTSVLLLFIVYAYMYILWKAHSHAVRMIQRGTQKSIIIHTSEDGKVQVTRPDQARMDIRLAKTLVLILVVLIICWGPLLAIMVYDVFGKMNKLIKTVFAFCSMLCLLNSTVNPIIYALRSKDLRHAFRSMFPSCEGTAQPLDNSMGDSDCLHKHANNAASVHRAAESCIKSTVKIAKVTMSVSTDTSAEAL

The first data set has as its target T1, Alpha-2C adrenergic receptor (Homo sapiens, UniProt P18825).
T1 sequence (P18825 whole entry): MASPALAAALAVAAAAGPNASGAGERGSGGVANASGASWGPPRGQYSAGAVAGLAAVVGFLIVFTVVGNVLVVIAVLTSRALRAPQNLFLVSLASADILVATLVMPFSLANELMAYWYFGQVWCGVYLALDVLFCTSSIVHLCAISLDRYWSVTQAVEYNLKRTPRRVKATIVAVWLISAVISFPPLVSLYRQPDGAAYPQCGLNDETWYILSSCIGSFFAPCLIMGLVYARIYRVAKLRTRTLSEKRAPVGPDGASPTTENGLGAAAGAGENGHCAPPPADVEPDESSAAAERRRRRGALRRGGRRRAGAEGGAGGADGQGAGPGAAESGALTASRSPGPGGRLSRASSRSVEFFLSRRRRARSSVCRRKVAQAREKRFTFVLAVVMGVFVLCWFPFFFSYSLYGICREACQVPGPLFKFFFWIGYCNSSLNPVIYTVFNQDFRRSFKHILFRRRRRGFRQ
As to the kind of experiment: DRUGMATRIX: Adrenergic Alpha-2C radioligand binding (ligand: [3H] MK-912). Format: cell membranes, Sf9, Membrane. The following applies: sf9.
With `COC(=O)[C@H](c1ccccc1Cl)N1CCc2sccc2C1` [CLOPIDOGREL], the IC50 entry was “Not Active”.
The same measure, in the same setting: for `Brc1ccccc1` [BROMOBENZENE] the value was “Not Active”; for `CCCSc1ccc2nc(NC(=O)OC)[nH]c2c1` [ALBENDAZOLE], “Not Active”.

A further data set deals with Beta-2 adrenergic receptor (Homo sapiens, UniProt P07550). As to the kind of experiment: DRUGMATRIX: Adrenergic beta2 radioligand binding (ligand: [3H] CGP-12177). Format: cell membranes, Membrane. The following applies: cho; Not Active = under 50% inhibition at 10 µM.
Beta-2 adrenergic receptor, sequence (P07550 whole entry): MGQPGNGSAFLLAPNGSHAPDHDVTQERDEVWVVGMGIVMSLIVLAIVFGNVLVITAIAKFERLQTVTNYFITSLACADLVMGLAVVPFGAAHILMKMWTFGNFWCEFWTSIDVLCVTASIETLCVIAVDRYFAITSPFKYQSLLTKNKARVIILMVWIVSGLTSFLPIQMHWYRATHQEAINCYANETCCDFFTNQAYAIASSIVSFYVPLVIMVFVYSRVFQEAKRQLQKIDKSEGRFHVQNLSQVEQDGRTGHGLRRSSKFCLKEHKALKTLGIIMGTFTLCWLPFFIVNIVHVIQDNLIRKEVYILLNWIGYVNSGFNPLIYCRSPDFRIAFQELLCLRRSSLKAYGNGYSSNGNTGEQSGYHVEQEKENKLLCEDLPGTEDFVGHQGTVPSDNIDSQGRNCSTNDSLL
Take `COC(=O)[C@H](c1ccccc1Cl)N1CCc2sccc2C1` [CLOPIDOGREL]: the IC50 entry is recorded as “Not Active”.
`Brc1ccccc1` [BROMOBENZENE]: the IC50 entry was “Not Active”.
For `CCCSc1ccc2nc(NC(=O)OC)[nH]c2c1` [ALBENDAZOLE], the IC50 result was “Not Active”.

Another data set addresses Sodium-dependent noradrenaline transporter (Homo sapiens, UniProt P23975). As to the kind of experiment: DRUGMATRIX: Norepinephrine Transporter radioligand binding (ligand: [125I] RTI-55). Format: cell membranes, MDCK, Membrane. As to conditions: mdck; Not Active = under 50% inhibition at 10 µM.
In the case of `COC(=O)[C@H](c1ccccc1Cl)N1CCc2sccc2C1` [CLOPIDOGREL], the IC50 result is recorded as “Not Active”.
As for `Brc1ccccc1` [BROMOBENZENE], the IC50 entry is reported as “Not Active”.
Turning to `CCCSc1ccc2nc(NC(=O)OC)[nH]c2c1` [ALBENDAZOLE], the IC50 entry is “Not Active”.

Test system in another data set: not listed separately
As to the kind of experiment: DRUGMATRIX: Atrial Natriuretic Factor (ANF) radioligand binding (ligand: [125I] ANF (rat)). Format: cell membranes, Cavia porcellus, Dunkin-Hartley, Adrenal gland, Membrane. As to conditions: Not Active = under 50% inhibition at 10 µM.
For `COC(=O)[C@H](c1ccccc1Cl)N1CCc2sccc2C1` [CLOPIDOGREL], the IC50 result is reported as “Not Active” and the Ki entry is “Not Active”.
`Brc1ccccc1` [BROMOBENZENE]: the IC50 entry is listed as “Not Active” and the Ki result is given as “Not Active”.
Take `CCCSc1ccc2nc(NC(=O)OC)[nH]c2c1` [ALBENDAZOLE]: the IC50 result was “Not Active” and the Ki entry is listed as “Not Active”.

Test system in another data set: not listed separately
As to the kind of experiment: DRUGMATRIX: Calcium Channel Type L, Dihydropyridine radioligand binding (ligand: [3H] Nitrendipine). In kind it is cell membranes, Rattus norvegicus, Wistar, Cerebral cortex, Membrane. As to conditions: Not Active = under 50% inhibition at 10 µM.
As to `COC(=O)[C@H](c1ccccc1Cl)N1CCc2sccc2C1` [CLOPIDOGREL], the IC50 entry is “Not Active” and the Ki entry was “Not Active”.
As for `Brc1ccccc1` [BROMOBENZENE], the IC50 result is listed as “Not Active” and the Ki result is “Not Active”.
Take `CCCSc1ccc2nc(NC(=O)OC)[nH]c2c1` [ALBENDAZOLE]: the IC50 result was “Not Active” and the Ki entry was “Not Active”.

A further data set concerns the target Cannabinoid receptor 1 (Homo sapiens, UniProt P21554). Format: cell membranes, Membrane. As to conditions: chem-1. Further: in other assays of this panel Not Active means under 50% inhibition at 10 µM.
As to `COC(=O)[C@H](c1ccccc1Cl)N1CCc2sccc2C1` [CLOPIDOGREL], the IC50 entry is reported as “Not Active”.
Still for that read-out and setting: for `Brc1ccccc1` [BROMOBENZENE] the value was “Not Active”.
Take `CCCSc1ccc2nc(NC(=O)OC)[nH]c2c1` [ALBENDAZOLE]: the IC50 entry was “Not Active”.

In another data set the target is T2, Endothelin-1 receptor (Homo sapiens, UniProt P25101). Further: in other assays of this panel Not Active means under 50% inhibition at 10 µM.
T2 sequence (P25101 whole entry): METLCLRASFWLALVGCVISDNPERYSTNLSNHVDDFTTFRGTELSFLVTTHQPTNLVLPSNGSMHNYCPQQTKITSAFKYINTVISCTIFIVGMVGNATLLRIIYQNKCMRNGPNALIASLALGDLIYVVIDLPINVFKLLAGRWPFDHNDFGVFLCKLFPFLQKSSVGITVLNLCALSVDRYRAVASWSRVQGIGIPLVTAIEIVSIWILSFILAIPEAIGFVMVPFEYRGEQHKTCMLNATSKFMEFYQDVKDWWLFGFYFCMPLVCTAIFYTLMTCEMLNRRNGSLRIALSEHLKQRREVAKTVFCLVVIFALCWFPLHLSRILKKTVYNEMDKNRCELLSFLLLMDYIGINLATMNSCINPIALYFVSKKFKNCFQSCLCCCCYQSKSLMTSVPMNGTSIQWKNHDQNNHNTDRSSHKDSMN
In kind it is cell membranes, Membrane. The following applies: cho-k1.
As for `COC(=O)[C@H](c1ccccc1Cl)N1CCc2sccc2C1` [CLOPIDOGREL], the IC50 entry is listed as “Not Active”.
The same measure, in the same setting: for `Brc1ccccc1` [BROMOBENZENE] the value was “Not Active”.
The same measure, in the same setting: for `CCCSc1ccc2nc(NC(=O)OC)[nH]c2c1` [ALBENDAZOLE] the value was “Not Active”.

Test system in the next data set: not listed separately
As to the kind of experiment: DRUGMATRIX: GABAA, Flunitrazepam, Central radioligand binding (ligand: [3H] Flunitrazepam). In kind it is cell membranes, Rattus norvegicus, Wistar, Brain, Membrane. The following applies: Not Active = under 50% inhibition at 10 µM.
On to `COC(=O)[C@H](c1ccccc1Cl)N1CCc2sccc2C1` [CLOPIDOGREL], for which the IC50 result is reported as “Not Active” and the Ki result was “Not Active”.
With `Brc1ccccc1` [BROMOBENZENE], the IC50 result is recorded as “Not Active” and the Ki entry is “Not Active”.
With `CCCSc1ccc2nc(NC(=O)OC)[nH]c2c1` [ALBENDAZOLE], the IC50 entry is recorded as “Not Active” and the Ki result is reported as “Not Active”.

The target in another data set is T3, Muscarinic acetylcholine receptor M2 (Homo sapiens, UniProt P08172). Further: in other assays of this panel Not Active means under 50% inhibition at 10 µM.
T3 sequence (P08172 whole entry): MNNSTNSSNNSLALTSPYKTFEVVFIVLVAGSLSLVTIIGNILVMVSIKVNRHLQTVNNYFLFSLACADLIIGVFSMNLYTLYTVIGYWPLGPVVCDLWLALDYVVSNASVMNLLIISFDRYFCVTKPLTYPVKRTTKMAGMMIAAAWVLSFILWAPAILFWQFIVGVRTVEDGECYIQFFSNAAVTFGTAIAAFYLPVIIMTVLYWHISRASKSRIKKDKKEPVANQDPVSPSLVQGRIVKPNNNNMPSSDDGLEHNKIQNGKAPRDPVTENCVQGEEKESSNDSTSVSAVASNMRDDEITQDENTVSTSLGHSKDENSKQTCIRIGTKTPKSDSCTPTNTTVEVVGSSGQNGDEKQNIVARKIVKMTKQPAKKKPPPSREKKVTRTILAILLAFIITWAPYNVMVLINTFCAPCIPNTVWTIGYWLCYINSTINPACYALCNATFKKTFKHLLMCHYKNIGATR
In kind it is cell membranes, CHO-K1, Membrane. The following applies: cho-k1.
Turning to `COC(=O)[C@H](c1ccccc1Cl)N1CCc2sccc2C1` [CLOPIDOGREL], the IC50 result is recorded as “Not Active”.
Still for that read-out and setting: for `Brc1ccccc1` [BROMOBENZENE] the value was “Not Active”; for `CCCSc1ccc2nc(NC(=O)OC)[nH]c2c1` [ALBENDAZOLE], “Not Active”.

Another data set has as its target Kappa-type opioid receptor (Homo sapiens, UniProt P41145). As to the kind of experiment: DRUGMATRIX: Opiate kappa (OP2, KOP) radioligand binding (ligand: [3H] Diprenorphine). As to conditions: hek293; Not Active = under 50% inhibition at 10 µM. In kind it is cell membranes, HEK293, Membrane.
With `COC(=O)[C@H](c1ccccc1Cl)N1CCc2sccc2C1` [CLOPIDOGREL], the IC50 result is recorded as “Not Active”.
For `Brc1ccccc1` [BROMOBENZENE], the IC50 result is “Not Active”.
On the same count and under the same terms, for `CCCSc1ccc2nc(NC(=O)OC)[nH]c2c1` [ALBENDAZOLE] the value was “Not Active”.

Test system in the next data set: not listed separately
As to the kind of experiment: DRUGMATRIX: Phosphodiesterase PDE3 enzyme inhibition (substrate: [3H]cAMP + cAMP). Format: tissue-based, Homo sapiens. As to conditions: platelet; Not Active = under 50% inhibition at 10 µM.
For `COC(=O)[C@H](c1ccccc1Cl)N1CCc2sccc2C1` [CLOPIDOGREL], the IC50 entry is “Not Active” and the Ki entry is “Not Active”.
Regarding `Brc1ccccc1` [BROMOBENZENE], the IC50 result is reported as “Not Active” and the Ki result is recorded as “Not Active”.
In the case of `CCCSc1ccc2nc(NC(=O)OC)[nH]c2c1` [ALBENDAZOLE], the IC50 entry is on record as “Not Active” and the Ki entry is given as “Not Active”.

The target in a further data set is Protein phosphatase 3 catalytic subunit alpha (Homo sapiens, UniProt Q08209). Also on record: species or system Escherichia coli.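 Further: inhibition of calcineurin (PP2B) enzyme activity, measured with DiFMUP as the substrate; in other assays of this panel Not Active means under 50% inhibition at 10 µM.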
Details: not given
Turning to `COC(=O)[C@H](c1ccccc1Cl)N1CCc2sccc2C1` [CLOPIDOGREL], the IC50 entry is “Not Active”.
Still for that read-out and setting: for `Brc1ccccc1` [BROMOBENZENE] the value was “Not Active”.
On the same count and under the same terms, for `CCCSc1ccc2nc(NC(=O)OC)[nH]c2c1` [ALBENDAZOLE] the value was “Not Active”.

The target in a further data set is T4, 5-hydroxytryptamine receptor 1A (Rattus norvegicus, UniProt P19327). Further: in other assays of this panel Not Active means under 50% inhibition at 10 µM.
T4 sequence (P19327 whole entry): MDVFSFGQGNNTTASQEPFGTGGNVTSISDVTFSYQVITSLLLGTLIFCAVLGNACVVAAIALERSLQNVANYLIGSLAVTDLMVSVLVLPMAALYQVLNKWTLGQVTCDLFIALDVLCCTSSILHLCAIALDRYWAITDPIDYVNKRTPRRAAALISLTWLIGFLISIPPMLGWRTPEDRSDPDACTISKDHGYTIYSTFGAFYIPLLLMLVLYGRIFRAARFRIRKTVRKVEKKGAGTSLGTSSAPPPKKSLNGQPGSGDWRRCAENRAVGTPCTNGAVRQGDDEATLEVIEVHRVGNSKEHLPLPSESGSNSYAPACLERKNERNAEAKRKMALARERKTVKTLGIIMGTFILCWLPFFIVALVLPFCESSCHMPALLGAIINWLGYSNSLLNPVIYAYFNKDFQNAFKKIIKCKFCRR
In kind it is cell membranes, CHO-K1, Membrane. As to conditions: cho-k1.
In the case of `COC(=O)[C@H](c1ccccc1Cl)N1CCc2sccc2C1` [CLOPIDOGREL], the IC50 entry is listed as “Not Active”.
Take `Brc1ccccc1` [BROMOBENZENE]: the IC50 result was “Not Active”.
The same measure, in the same setting: for `CCCSc1ccc2nc(NC(=O)OC)[nH]c2c1` [ALBENDAZOLE] the value was “Not Active”.

The target in another data set is Cytochrome P450 2C9 (Homo sapiens, UniProt P11712). As to conditions: bti-tn-5b1-4. Further: in other assays of this panel Not Active means under 50% inhibition at 10 µM.
Cytochrome P450 2C9, sequence (P11712 whole entry): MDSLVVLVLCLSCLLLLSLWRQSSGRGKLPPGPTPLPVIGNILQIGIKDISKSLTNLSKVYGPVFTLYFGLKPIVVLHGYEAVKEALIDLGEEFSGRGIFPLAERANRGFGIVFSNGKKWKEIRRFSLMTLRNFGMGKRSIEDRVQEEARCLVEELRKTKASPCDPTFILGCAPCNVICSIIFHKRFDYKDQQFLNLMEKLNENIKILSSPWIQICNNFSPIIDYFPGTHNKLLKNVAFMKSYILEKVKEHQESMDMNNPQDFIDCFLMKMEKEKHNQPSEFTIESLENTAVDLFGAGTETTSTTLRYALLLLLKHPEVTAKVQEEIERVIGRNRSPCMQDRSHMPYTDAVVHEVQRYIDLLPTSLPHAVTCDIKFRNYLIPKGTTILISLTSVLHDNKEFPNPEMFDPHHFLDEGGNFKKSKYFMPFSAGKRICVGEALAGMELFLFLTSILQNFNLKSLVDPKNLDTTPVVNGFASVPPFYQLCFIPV
On to `COC(=O)[C@H](c1ccccc1Cl)N1CCc2sccc2C1` [CLOPIDOGREL], for which the IC50 result is listed as “Not Active” and the Ki entry is reported as “Not Active”.
Consider `Brc1ccccc1` [BROMOBENZENE], for which the IC50 result was “Not Active” and the Ki entry was “Not Active”.
With `CCCSc1ccc2nc(NC(=O)OC)[nH]c2c1` [ALBENDAZOLE], the IC50 entry is given as “Not Active” and the Ki result is recorded as “Not Active”.
